Values quoted from earlier work, collected in patent US20240165186A1, “Synergistically Formulated Compound for Mitochondria Supplementation and Enhancement” (priority 2022, published 2024).

Details: relative to vitamin C; no test described

## O=C(O)c1cc(C(=O)O)c2c(n1)C(=O)C(=O)c1cc(C(=O)O)[nH]c1-2 [PQQ, Pyrroloquinoline Quinone]
  times more effective than vitamin C as an antioxidant: ≤ 1000 times
